The term IC50 denotes the concentration at which inhibition is half-maximal. A lower IC50 goes with inhibition by little substance.

Results on one compound are retold here after patent US10150743B2, “Carboxylic acid compounds” (priority 2012, dated 2018).

In assay [1] the target is human TLR8 (Homo sapiens (Human), UniProt Q9NR97). The assay is described as follows: Human TLR8 assay (TLR8/NF-kB/SEAPorter HEK 293 Cell Line). Format: cell-based. As to conditions: SEAP induction, overnight incubation at 37° C., 0.1% DMSO; read-out: TLR8 pEC50 (converted). An excerpt: TLR8/NF-kB/SEAPorter™ HEK 293 Cell Line (Imgenex Corporation) is a stably co-transfected cell line which expresses full-length human TLR8 and the secreted alkaline phosphatase (SEAP) reporter gene under the transcriptional control of an NF-κB response element. TLR8 expression in this cell line has been tested by flow cytometry. Transfectants with stable expression were selected using the antibiotic blasticidin and geneticin. TLR signaling leads to the translocation of NF-κB and activation of the promoter results in expression of the SEAP gene. TLR8-specific activation was assessed by determining the level of SEAP produced following overnight incubation of the cells at 37° C. with the standard compound in the presence of 0.1% (v/v) dimethylsulfoxide (DMSO). Concentration dependent induction of SEAP production by compounds was expressed as the concentration of compound which produced half of the maximal level of SEAP induction for that compound (EC50).

The target in assay [2] is hERG potassium channel (Homo sapiens (Human), UniProt Q12809). As to the kind of experiment: hERG Analysis - Method 2 (QPATCH HT, CHO-hERG cells). The class given is cell-based. As to conditions: half-maximal inhibition concentration, 22±2° C. The method, then: The hERG potassium current was measured in a hERG-stably-expressing Chinese hamster ovary K1 (CHO) cells. The experiments were performed using an automated planar patch-clamp system QPATCH HT (Sophion Bioscience A/S). The application of pressure for forming gigaseals and whole-cell patch clamp configuration were established using the QPATCH assay software. Patch-clamp experiments were performed in voltage-clamp mode and whole-cell currents were recorded from individual cells. The following stimulation protocol was applied to investigate the effects of compounds on hERG potassium channel: The membrane potential was held at −80 mV and repetitively (every 15 s) depolarized to +20 mV for 5 s after the pulse to −50 mV for 20 ms served to define the baseline, followed by repolarizing step to −50 mV for 5 s to evaluate of the tail current amplitude. Experiments were conducted at room temperature (22±2° C.).
Effects of compounds were determined from cumulative applications of increasing 4 concentrations and calculated as percent of blocked current. The data points were fitted with Hill equation to calculate half-maximal inhibition concentrations. The test solution includes: Extracellular solution (mM): 2 mM of CaCl2, 1 mM of MgCl2, 10 mM of HEPES, 4 mM of KCl, 145 mM of NaCl, and 10 mM of Glucose; and Intracellular solution (mM): 5.4 mM of CaCl2, 1.8 mM of MgCl2, 10 mM of HEPES, 31 mM of KOH, 10 mM of EGTA, 120 mM of KCl, and 4 mM of ATP.
For orientation: Block of hERG is tested as a sign of cardiac risk.

Assay [3] has as its system CT26 mouse tumour cells. The assay is described as follows: Survival studies in CT26, a murine syngeneic colon carcinoma tumour model. Format: in vivo. As to conditions: Balb/C mice; RT 2Gy x5 plus 30 mg/kg once a week p.o.; vs control or RT; FIG. 12. The method, then: Experiments were conducted on female mice (Balb/C genotype, at least 5 weeks old). CT26 mouse tumour cells (CRL-2638) were purchased from ATCC. CT26 mouse tumour cells (1×10^6) were implanted subcutaneously in the flank of mice on day 0. Mice in radiotherapy alone (RT) group and combination group were anesthetized and received radiation therapy (2Gy) at days 7, 8, 9, 10, and 11. Mice in combination group were also treated with a compound of Example 3 (30 mg/kg once a week) administered orally (p.o.) or Example 4 (5 mg/kg once a week) administered intravenously (i. v.) on days 7, 14, 22, and 27. Tumour volumes were assessed at least twice weekly by bilateral vernier caliper measurements. Survival period was determined by the time taken for tumours to reach 4 times the volume at the time of treatment.

Chain of hERG potassium channel (Q12809 whole entry): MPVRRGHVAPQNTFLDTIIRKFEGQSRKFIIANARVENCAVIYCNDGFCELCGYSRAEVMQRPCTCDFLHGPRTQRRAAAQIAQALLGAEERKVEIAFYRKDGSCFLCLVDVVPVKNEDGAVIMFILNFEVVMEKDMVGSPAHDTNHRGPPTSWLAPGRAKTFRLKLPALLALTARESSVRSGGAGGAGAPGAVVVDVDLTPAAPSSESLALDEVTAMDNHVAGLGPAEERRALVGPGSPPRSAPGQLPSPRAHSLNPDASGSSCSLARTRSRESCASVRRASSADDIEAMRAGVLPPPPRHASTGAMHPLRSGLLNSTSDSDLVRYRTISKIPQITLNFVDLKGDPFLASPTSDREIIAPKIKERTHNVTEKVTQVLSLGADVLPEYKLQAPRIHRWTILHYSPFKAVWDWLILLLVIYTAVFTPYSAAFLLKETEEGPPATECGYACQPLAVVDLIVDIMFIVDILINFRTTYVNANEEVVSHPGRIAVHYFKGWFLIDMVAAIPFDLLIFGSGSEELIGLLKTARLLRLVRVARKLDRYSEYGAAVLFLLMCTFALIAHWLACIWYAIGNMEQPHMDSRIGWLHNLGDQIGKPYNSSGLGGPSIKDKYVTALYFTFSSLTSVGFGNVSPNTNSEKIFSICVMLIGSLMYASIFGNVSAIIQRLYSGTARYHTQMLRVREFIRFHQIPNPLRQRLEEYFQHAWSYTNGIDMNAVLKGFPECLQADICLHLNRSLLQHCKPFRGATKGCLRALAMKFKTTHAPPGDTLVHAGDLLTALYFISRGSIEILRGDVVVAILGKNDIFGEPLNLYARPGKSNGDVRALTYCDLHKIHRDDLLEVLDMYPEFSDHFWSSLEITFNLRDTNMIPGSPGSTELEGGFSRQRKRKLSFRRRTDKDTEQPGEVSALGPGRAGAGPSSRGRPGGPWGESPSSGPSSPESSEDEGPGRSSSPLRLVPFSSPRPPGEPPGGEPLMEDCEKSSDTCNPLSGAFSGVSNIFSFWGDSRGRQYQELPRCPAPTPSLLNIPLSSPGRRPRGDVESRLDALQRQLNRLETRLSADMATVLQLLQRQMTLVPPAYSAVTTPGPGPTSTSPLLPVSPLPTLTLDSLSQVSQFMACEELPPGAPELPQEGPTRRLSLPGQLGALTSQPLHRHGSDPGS
Chain of human TLR8 (Q9NR97 27-1041): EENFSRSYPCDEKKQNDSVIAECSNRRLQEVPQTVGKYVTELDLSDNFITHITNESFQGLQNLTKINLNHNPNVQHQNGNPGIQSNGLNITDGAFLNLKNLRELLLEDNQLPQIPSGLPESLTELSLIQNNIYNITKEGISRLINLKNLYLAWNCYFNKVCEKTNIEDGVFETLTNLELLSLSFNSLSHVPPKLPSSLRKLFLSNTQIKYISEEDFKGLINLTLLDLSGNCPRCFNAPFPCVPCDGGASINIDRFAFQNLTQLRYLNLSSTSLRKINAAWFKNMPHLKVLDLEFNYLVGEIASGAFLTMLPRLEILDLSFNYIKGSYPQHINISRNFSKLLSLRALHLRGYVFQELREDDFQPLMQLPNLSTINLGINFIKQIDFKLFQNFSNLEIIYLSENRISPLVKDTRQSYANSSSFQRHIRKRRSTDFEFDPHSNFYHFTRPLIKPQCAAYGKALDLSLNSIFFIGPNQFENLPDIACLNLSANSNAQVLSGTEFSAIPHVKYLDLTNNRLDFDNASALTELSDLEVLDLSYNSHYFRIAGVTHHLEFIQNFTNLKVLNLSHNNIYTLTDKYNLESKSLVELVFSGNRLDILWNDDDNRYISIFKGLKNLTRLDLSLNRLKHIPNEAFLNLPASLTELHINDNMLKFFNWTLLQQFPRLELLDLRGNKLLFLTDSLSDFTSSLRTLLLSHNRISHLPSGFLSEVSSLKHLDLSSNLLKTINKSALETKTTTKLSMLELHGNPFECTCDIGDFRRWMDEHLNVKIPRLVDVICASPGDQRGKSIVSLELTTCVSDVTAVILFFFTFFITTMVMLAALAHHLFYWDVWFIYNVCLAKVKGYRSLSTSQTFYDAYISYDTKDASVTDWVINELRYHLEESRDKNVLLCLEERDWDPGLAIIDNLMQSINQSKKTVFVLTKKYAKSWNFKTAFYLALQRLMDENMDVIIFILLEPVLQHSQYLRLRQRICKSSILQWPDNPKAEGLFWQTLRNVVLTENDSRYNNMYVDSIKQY

On to `CCC[C@@H](CCO)Nc1nc(N)nc(C)c1Cc1ccc(CN(CC(=O)O)CC(F)F)cc1OC` [Example 3, (S)-2-((4-((2-amino-4-(1-hydroxyhexan-3-ylamino)-6-methylpyrimidin-5-yl)methyl)-3-methoxybenzyl)(2,2-difluoroethyl)amino)acetic acid], for which the EC50 in assay [1] was greater than 10 µM. In assay [2], this compound gave a half-maximal inhibitory concentration (IC50) greater than 10 µM. In addition, in assay [3], the “Survival period (time for tumours to reach 4 times the volume at treatment)” value was “survived significantly longer”.
